# According to patent US8048927B2 (Besins Healthcare Luxembourg, priority 2004, dated 2011):
# Legend:
# [1] = pharmacokinetics of 4-hydroxy tamoxifen gel in healthy premenopausal women (Example 3); assay type: in vivo, human; settings: for Plasma concentration of 4-hydroxy tamoxifen, Mean ± SD / T(1stC < LOQ), first timepoint at which the plasma concentration was below the limit of quantification, Mean ± SD / Plasma concentration of 4-hydroxy tamoxifen, Range / AUC0-24, Mean ± SD / Cav = AUC0-24/24, Mean ± SD / Cmax, Mean ± SD / t1/2, Range / tmax, Mean ± SD: gel 57 mg/100 g; for T(1stC < LOQ), first timepoint at which the plasma concentration was below the limit of quantification, Mean ± SD: after last administration; for AUC0-24, Mean ± SD / Cav = AUC0-24/24, Mean ± SD / Cmax, Mean ± SD / t1/2, Range / tmax, Mean ± SD: last administration, day 25 of second cycle
# Procedure: At the end of a menstrual cycle, each patient received a single dose, after which serial blood samples were collected at 0, 0.5, 1, 1.5, 2, 3, 4, 6, 12, 18, 24, 36, 48, and 72 hours.
# [2] = tolerance of 4-hydroxy tamoxifen gel in healthy premenopausal women (Example 3)
# Procedure: Each participant applied the gel daily for the duration of two menstrual cycles.
# On the first day of the following menstruation, treatment, which consisted of daily application of the gel over two menstrual cycles, began. Blood samples were collected 24 hours following the morning application of gel on days 7, 20 and 25 of the first and second cycles. On the last day of administration, day 25 of the second menstrual cycle, serial blood samples were collected prior to application and at 0.5, 1, 1.5, 2, 3, 4, 6, 12, 18, 24, 36, 48, and 72 hours after application of the gel.
structure (smiles),measurement,setting,value
"CCC(=C(c1ccc(O)cc1)c1ccc(OCCN(C)C)cc1)c1ccccc1 [4-hydroxy tamoxifen, 1-[4-(2-N-dimethylaminoethoxy)phenyl]-1-(4-hydroxyphenyl)-2-phenylbut-1-ene]","Plasma concentration of 4-hydroxy tamoxifen, Mean ± SD","[1]; 1 mg/day, Second cycle Day 7, 24 hr after application",0.0222 ± 0.0164 ng/mL
same,"Plasma concentration of 4-hydroxy tamoxifen, Mean ± SD","[1]; 1 mg/day, Second cycle Day 20, 24 hr after application",0.0244 ± 0.0201 ng/mL
same,"Plasma concentration of 4-hydroxy tamoxifen, Mean ± SD","[1]; 1 mg/day, Second cycle Day 25, 0 hr (24 hours after Day 24 application, prior to final application)",0.0272 ± 0.0208 ng/mL
same,"Plasma concentration of 4-hydroxy tamoxifen, Mean ± SD","[1]; 1 mg/day, Second cycle Day 25, 0.5 hr after application",0.0259 ± 0.0187 ng/mL
same,"Plasma concentration of 4-hydroxy tamoxifen, Mean ± SD","[1]; 1 mg/day, Second cycle Day 25, 1 hr after application",0.0287 ± 0.0195 ng/mL
same,"Plasma concentration of 4-hydroxy tamoxifen, Mean ± SD","[1]; 1 mg/day, Second cycle Day 25, 1.5 hr after application",0.0256 ± 0.0178 ng/mL
same,"Plasma concentration of 4-hydroxy tamoxifen, Mean ± SD","[1]; 1 mg/day, Second cycle Day 25, 2 hr after application",0.0251 ± 0.018 ng/mL
same,"Plasma concentration of 4-hydroxy tamoxifen, Mean ± SD","[1]; 1 mg/day, Second cycle Day 25, 3 hr after application",0.0248 ± 0.0205 ng/mL
same,"Plasma concentration of 4-hydroxy tamoxifen, Mean ± SD","[1]; 1 mg/day, Second cycle Day 25, 4 hr after application",0.0268 ± 0.0233 ng/mL
same,"Plasma concentration of 4-hydroxy tamoxifen, Mean ± SD","[1]; 1 mg/day, Second cycle Day 25, 6 hr after application",0.025 ± 0.0182 ng/mL
same,"Plasma concentration of 4-hydroxy tamoxifen, Mean ± SD","[1]; 1 mg/day, Second cycle Day 25, 12 hr after application",0.0283 ± 0.0229 ng/mL
same,"Plasma concentration of 4-hydroxy tamoxifen, Mean ± SD","[1]; 1 mg/day, Second cycle Day 25, 18 hr after application",0.0234 ± 0.0174 ng/mL
same,"Plasma concentration of 4-hydroxy tamoxifen, Mean ± SD","[1]; 1 mg/day, Second cycle Day 26, 24 hr after last application",0.026 ± 0.0196 ng/mL
same,"Plasma concentration of 4-hydroxy tamoxifen, Mean ± SD","[1]; 1 mg/day, Second cycle Day 26, 36 hr after last application",0.0257 ± 0.0184 ng/mL
same,"Plasma concentration of 4-hydroxy tamoxifen, Mean ± SD","[1]; 1 mg/day, Second cycle Day 27, 48 hr after last application",0.022 ± 0.016 ng/mL
same,"Plasma concentration of 4-hydroxy tamoxifen, Mean ± SD","[1]; 1 mg/day, Second cycle Day 28, 72 hr after last application",0.0189 ± 0.0124 ng/mL
same,"T(1stC < LOQ), first timepoint at which the plasma concentration was below the limit of quantification, Mean ± SD",[1]; 1 mg/day,236 ± 72 h
same,"Plasma concentration of 4-hydroxy tamoxifen, Mean ± SD","[1]; 1 mg/day, after the second cycle, +5 days",0.0114 ± 0.0082 ng/mL
same,"Plasma concentration of 4-hydroxy tamoxifen, Range","[1]; 1 mg/day, after the second cycle, +8 days",(0-14.8) pg/mL
same,"AUC0-24, Mean ± SD",[1]; 1 mg/day,0.619 ± 0.466 ng·h/mL
same,"Cav = AUC0-24/24, Mean ± SD",[1]; 1 mg/day,0.0258 ± 0.0194 ng/mL
same,"Cmax, Mean ± SD",[1]; 1 mg/day,0.0351 ± 0.0224 ng/mL
same,"t1/2, Range",[1]; 1 mg/day,(58-118) hr
same,"tmax, Mean ± SD",[1]; 1 mg/day,12.8 ± 14.9 h
same,"Plasma concentration of 4-hydroxy tamoxifen, Range","[1]; 2 mg/day, First cycle Day 1, 0 hr",(0-0) pg/mL
same,"Plasma concentration of 4-hydroxy tamoxifen, Mean ± SD","[1]; 2 mg/day, First cycle Day 7, 24 hr after application",0.0269 ± 0.0182 ng/mL
same,"Plasma concentration of 4-hydroxy tamoxifen, Mean ± SD","[1]; 2 mg/day, First cycle Day 20, 24 hr after application",0.044 ± 0.0292 ng/mL
same,"Plasma concentration of 4-hydroxy tamoxifen, Mean ± SD","[1]; 2 mg/day, First cycle Day 25, 24 hr after application",0.0454 ± 0.031 ng/mL
same,"Plasma concentration of 4-hydroxy tamoxifen, Mean ± SD","[1]; 2 mg/day, Second cycle Day 7, 24 hr after application",0.0422 ± 0.0248 ng/mL
same,"Plasma concentration of 4-hydroxy tamoxifen, Mean ± SD","[1]; 2 mg/day, Second cycle Day 20, 24 hr after application",0.0389 ± 0.0271 ng/mL
same,"Plasma concentration of 4-hydroxy tamoxifen, Mean ± SD","[1]; 2 mg/day, Second cycle Day 25, 0 hr (24 hours after Day 24 application, prior to final application)",0.0432 ± 0.0277 ng/mL
same,"Plasma concentration of 4-hydroxy tamoxifen, Mean ± SD","[1]; 2 mg/day, Second cycle Day 25, 0.5 hr after application",0.0445 ± 0.0299 ng/mL
same,"Plasma concentration of 4-hydroxy tamoxifen, Mean ± SD","[1]; 2 mg/day, Second cycle Day 25, 1 hr after application",0.0405 ± 0.0251 ng/mL
same,"Plasma concentration of 4-hydroxy tamoxifen, Mean ± SD","[1]; 2 mg/day, Second cycle Day 25, 1.5 hr after application",0.0368 ± 0.0211 ng/mL
same,"Plasma concentration of 4-hydroxy tamoxifen, Mean ± SD","[1]; 2 mg/day, Second cycle Day 25, 2 hr after application",0.0368 ± 0.0216 ng/mL
same,"Plasma concentration of 4-hydroxy tamoxifen, Mean ± SD","[1]; 2 mg/day, Second cycle Day 25, 3 hr after application",0.0361 ± 0.0206 ng/mL
same,"Plasma concentration of 4-hydroxy tamoxifen, Mean ± SD","[1]; 2 mg/day, Second cycle Day 25, 4 hr after application",0.0381 ± 0.0212 ng/mL
same,"Plasma concentration of 4-hydroxy tamoxifen, Mean ± SD","[1]; 2 mg/day, Second cycle Day 25, 6 hr after application",0.041 ± 0.0291 ng/mL
same,"Plasma concentration of 4-hydroxy tamoxifen, Mean ± SD","[1]; 2 mg/day, Second cycle Day 25, 12 hr after application",0.0451 ± 0.0306 ng/mL
same,"Plasma concentration of 4-hydroxy tamoxifen, Mean ± SD","[1]; 2 mg/day, Second cycle Day 25, 18 hr after application",0.0398 ± 0.0255 ng/mL
same,"Plasma concentration of 4-hydroxy tamoxifen, Mean ± SD","[1]; 2 mg/day, Second cycle Day 26, 24 hr after last application",0.044 ± 0.033 ng/mL
same,"Plasma concentration of 4-hydroxy tamoxifen, Mean ± SD","[1]; 2 mg/day, Second cycle Day 26, 36 hr after last application",0.0421 ± 0.0315 ng/mL
same,"Plasma concentration of 4-hydroxy tamoxifen, Mean ± SD","[1]; 2 mg/day, Second cycle Day 27, 48 hr after last application",0.0381 ± 0.0253 ng/mL
same,"Plasma concentration of 4-hydroxy tamoxifen, Mean ± SD","[1]; 2 mg/day, Second cycle Day 28, 72 hr after last application",0.0332 ± 0.0222 ng/mL
same,"T(1stC < LOQ), first timepoint at which the plasma concentration was below the limit of quantification, Mean ± SD",[1]; 2 mg/day,326 ± 97 h
same,"Plasma concentration of 4-hydroxy tamoxifen, Mean ± SD","[1]; 2 mg/day, after the second cycle, +5 days",0.0204 ± 0.0173 ng/mL
same,"Plasma concentration of 4-hydroxy tamoxifen, Mean ± SD","[1]; 2 mg/day, after the second cycle, +8 days",0.0108 ± 0.0134 ng/mL
same,"Plasma concentration of 4-hydroxy tamoxifen, Range","[1]; 2 mg/day, after the second cycle, +12 days",(0-30.4) pg/mL
same,"AUC0-24, Mean ± SD",[1]; 2 mg/day,0.998 ± 0.653 ng·h/mL
same,"Cav = AUC0-24/24, Mean ± SD",[1]; 2 mg/day,0.0416 ± 0.0272 ng/mL
same,"Cmax, Mean ± SD",[1]; 2 mg/day,0.0516 ± 0.0317 ng/mL
same,"t1/2, Range",[1]; 2 mg/day,(49-101) hr
same,"tmax, Mean ± SD",[1]; 2 mg/day,11.8 ± 12.3 h
same,plasma concentrations after the last gel application,[1]; 72 hours after the last gel application,remained detectable
same,plasma concentrations of 4-hydroxy tamoxifen after a single dose,[1]; single 0.5 mg dose,did not produce detectable plasma concentrations
same,patients with detectable plasma concentrations (>5 pg/mL),[1]; single dose of 1 mg,6 of 12
same,plasma concentrations of 4-hydroxy tamoxifen compared with typical estradiol concentrations,"[1]; topical application, 0.5-2 mg/day",< 0.08 ng/mL
same,patients who developed an allergic reaction to the gel,[2]; 36 patients,One
same,patients who reported facial acne,"[2]; 36 patients, 5 had a past history of acne",10
same,biological tolerance,"[2]; all 36 patients, daily gel over two menstrual cycles",excellent
same,"effect on FSH, LH, estradiol, or progesterone hormone levels",[2]; during the menstrual cycles,did not affect
same,echographic examination of the ovaries,"[2]; end of treatment, all patients",normal in all patients
same,laboratory or clinical evidence of systemic effects,[2]; topical application,no detectable laboratory or clinical evidence of systemic effects
